Structures are written as SMILES.

System in the first data set: not listed separately
Nature of the data set: Binding in plasma from rat (equilibrium dialysis). The data set is classed as in vitro ADME. The conditions noted are these: fraction unbound, equilibrium dialysis, read-out: rat fu,plasma. As for the experimental part: (§1) Binding in plasma from rat and human.
(§2) Determination of compounds’ fraction unbound (f u) in plasma from rat and human was conducted in vitro via equilibrium dialysis using HTDialysis membrane plates. Dialysis membranes (four paired strips per HTD assay) were hydrated as described by the manufacturer and inserted into the HTD plate, which was assembled and prepared for sample addition by the dispensing of blank buffer (DPBS, 100 µL/well) into the ‘top half’ of each membrane-split well. Each compound was diluted into plasma from each species (5 µM final concentration), which was aliquoted in triplicate to the ‘bottom half’ of the prepared HTD plate wells. The HTD plate was sealed and incubated for 6 hours at 37 °C. Following incubation, each well (both top and bottom halves) were transferred (20 µL) to the corresponding wells of a 96-shallow-well (V-bottom) plate. The daughter plates were then matrix-matched (buffer side wells received equal volume of plasma, and plasma side wells received equal volume of buffer), and extraction solution (120 µL; acetonitrile containing 50 nM carbamazepine as IS) was added to all wells of both daughter plates to precipitate protein and extract test article. The plates were then sealed and centrifuged (3500 rcf) for 10 minutes at ambient temperature. Supernatant (60 µL) from each well of the daughter plates was then transferred to the corresponding wells of new daughter plates (96-shallow-well, V bottom) containing water (Milli-Q, 60 µL/well), and the plates were sealed in preparation for LC-MS/MS analysis (see below). fu was calculated as (analyte to IS MS peak area ratio from Trans-buffer side) / (analyte to IS MS peak area ratio from Cis-plasma side). Mean values for each species were calculated from 3 replicates.
`Cc1nc(C)c2c(n1)sc1c(N3CCCCC3)nccc12` [22e]: the fraction unbound at 6 h, 5 µM worked out at 0.019.
With `Cc1nc(C)c2c(n1)sc1c(N3CCC(F)(F)C3)nccc12` [22f], the fraction unbound at 6 h, 5 µM amounted to 0.043.

System in the next data set: not listed separately
Briefly: Intrinsic clearance in rat liver microsomes. The data set is classed as in vitro ADME. The settings on record: pH 7.4; rat liver microsomes. As for the experimental part: (§3) Intrinsic Clearance in Rat and Human Liver Microsomes
(§4) The in vitro intrinsic clearance (CL int) was investigated in commercially obtained hepatic microsomes from rat and human donors using the substrate depletion (i.e., loss-of-parent vs. time, or t 1/2 method) approach with analyte detection via liquid chromatography-tandem mass spectrometry (LC-MS/MS). For each species, mean %parent remaining values at each time point were calculated from replicates raw data (analyte:IS peak area ratios) and used to determine in vitro t 1/2 and CLint.
(§5) Experiments were carried out using a robot-assisted (TECAN model Evo 200). Compound was incubated (1 µM final concentration) in buffer (100 mM potassium phosphate pH 7.4 with 3 mM MgCl2) containing hepatic microsomes (0.5 mg/mL final concentration) from multiple species, discretely, at 37 °C under constant orbital shaking. After 5 minutes (pre-incubation), reactions were initiated by addition of nicotinamide adenine dinucleotide phosphate (NADPH, 1 mM final concentration). At selected time intervals (0, 3, 7, 15, 25, and 45 minutes) post-addition of NADPH, aliquots (50 µL) were taken and placed into a 96-shallow-well plate containing ice cold acetonitrile (150 µL) with carbamazepine (IS, 50 nM). The plates were then centrifuged (3000 rcf at 4 °C) for 10 minutes. The supernatants were transferred to a new 96-shallow-well daughter plate and diluted (1:1 v/v) with water (Milli-Q filtered). The plates were then sealed in preparation for LC-MS/MS analysis (see below).
(§6) Raw LC-MS/MS peak area data generated from the assay samples were used to construct natural log-transformed %parent remaining vs. time plots (using t = 0 minute post-NADPH addition sample data as starting point set to 100%). In vitro compound half-life (t 1/2) values were obtained using the following […]
(§7) k is the slope from linear regression analysis of the natural log-transformed data (using means from Where all replicates at each time point). Resulting t 1/2 values were then used to calculate hepatic CLint values according to the following equation and with the use of species-specific scale-up factors for liver weight (grams) per total body weight (kg): […]
(§8) CLint = in vitro t1/2 x 0.5 mg microsomes x 1 gram liver x kg body wt aScale-up factors used are 45 (rat) and 20 (human).2
(§9) Predicted hepatic clearance (CLhep) was calculated using the following equation: […]
(§10) Qh represents hepatic blood flow (mL/min/kg): 21 for human, 70 for rat, and 90 for mouse.
(§11) Prepared samples were injected (10 µL each) onto an AB Sciex Triple Quad 4500 mass spectrometer system with an Agilent 1260 Infinity II pump and autosampler. Mass spectrometer conditions are described in Table S1. Quantitation of compounds was performed via AB Sciex Multiquant software using the raw analyte:IS peak area ratios. The typical detection range was 0.5 ng/mL to ≥ 5,000 ng/mL utilizing a quadratic equation regression with 1/x2 weighting. […]
(§12) Table S1. LC-MS/MS Conditions*
(§13) Mobile phase A 0.5% Formic Acid in Water
(§14) Mobile phase B 0.5% Formic Acid in Acetonitrile
(§15) Gradient Time % Mobile Phase B
The compound `Cc1nc(C)c2c(n1)sc1c(N3CCCCC3)nccc12` [22e] came in with a CLint scaled at 1 µM of 3440 mL/min/kg.
On the same count and under the same terms, with `Cc1nc(C)c2c(n1)sc1c(N3CCC(F)(F)C3)nccc12` [22f] the figure was 1520 mL/min/kg.

For the next data set, the target named is T1, human M4 (hM4) (Homo sapiens, UniProt P08173).
T1 construct: expressed in transfected cells
T1 sequence (P08173 1-479): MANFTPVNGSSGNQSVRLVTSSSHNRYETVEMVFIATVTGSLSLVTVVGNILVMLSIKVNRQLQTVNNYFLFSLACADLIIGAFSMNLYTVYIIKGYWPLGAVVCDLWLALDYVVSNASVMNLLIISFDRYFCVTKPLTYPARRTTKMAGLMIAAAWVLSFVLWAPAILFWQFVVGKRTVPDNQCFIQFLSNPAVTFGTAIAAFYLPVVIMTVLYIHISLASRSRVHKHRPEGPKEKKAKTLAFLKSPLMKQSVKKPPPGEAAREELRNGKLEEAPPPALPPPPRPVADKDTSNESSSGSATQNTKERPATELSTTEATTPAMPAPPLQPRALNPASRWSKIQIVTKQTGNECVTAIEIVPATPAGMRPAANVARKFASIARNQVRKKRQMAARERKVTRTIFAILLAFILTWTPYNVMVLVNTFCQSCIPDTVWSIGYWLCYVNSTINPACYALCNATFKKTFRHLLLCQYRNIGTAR
Nature of the data set: Calcium mobilization assay, hM4/Gqi5-CHO cells, EC20 acetylcholine (PAM). The conditions noted are these: 14h vs 14c; 22g vs 14j; 22j vs 14k; 22k vs 14g; 22f vs 14e. The data set is classed as cell-based.
As to `Cc1nc(C)c2c(n1)sc1c(N3CCC(F)(F)C3)nccc12` [22f], the “fold increase in hM4 potency (EC50) vs comparator analogue” value is on record as 19 fold.

Staying with this data set, now noted: calcium mobilization, hM4/Gqi5-CHO cells, EC20 acetylcholine; read-out: hM4 %ACh Max.
On to `Cc1nc(C)c2c(n1)sc1c(N3CCCCC3)nccc12` [22e], for which the Emax is 58%.
Still for that read-out and setting: with `Cc1nc(C)c2c(n1)sc1c(N3CCC(F)(F)C3)nccc12` [22f] the figure was 97%.

The data set is the same for the next values; noted with them: calcium mobilization, hM4/Gqi5-CHO cells, EC20 acetylcholine; read-out: hM4 EC50.
Consider `Cc1nc(C)c2c(n1)sc1c(N3CCCCC3)nccc12` [22e], for which the EC50 is less than 190 nM.
On to `Cc1nc(C)c2c(n1)sc1c(N3CCC(F)(F)C3)nccc12` [22f], for which the EC50 is less than 190 nM.

The same data set, now with this note: calcium mobilization, hM4/Gqi5-CHO cells, EC20 acetylcholine; read-out: hM4 pEC50 (converted).
As for `Cc1nc(C)c2c(n1)sc1c(N3CCCCC3)nccc12` [22e], the EC50 was 74.1 nM.
Same read-out and setting: the same measure for `Cc1nc(C)c2c(n1)sc1c(N3CCC(F)(F)C3)nccc12` [22f]: 33.1 nM.

System in another data set: not listed separately
Briefly: Binding in brain homogenate from rat (equilibrium dialysis). The settings on record: fraction unbound; equilibrium dialysis; rat brain homogenates. It is filed as in vitro ADME. As for the experimental part:
Binding in brain homogenate from rat.
Determination of fraction unbound (f u) in brain homogenate from rat was conducted using the same methodology and procedure than described for plasma protein binding assay with the following modifications: 1) a final compound concentration of 1 μM was used, 2) naïve rat brains were homogenized in DPBS (1:3 composition of brain: DPBS, w/w) using a Mini-Bead Beater™ machine in order to obtain […]
The diluted fraction unbound (f u2) in brain was calculated as (analyte to IS MS peak area ratio from Trans-buffer side) / (analyte to IS MS peak area ratio from Cis-brain homogenate side). Undiluted fraction unbound for the brain was calculated using the following equation: […]
Mean values for each species were calculated from 3 replicates. […]
In turn, `Cc1nc(C)c2c(n1)sc1c(N3CCCCC3)nccc12` [22e] came in with a rat fbrain of 0.004.
For the compound `Cc1nc(C)c2c(n1)sc1c(N3CCC(F)(F)C3)nccc12` [22f], the rat fbrain was 0.015.

The data set is the same for the next values; noted with them: rat, brain homogenate, in %; read-out: fu,brain (rat brain homogenate).
As for `Cc1nc(C)c2c(n1)sc1c(N3CCCCC3)nccc12` [22e], the fraction unbound at 6 h, 1 µM was less than 0.01.
As for `Cc1nc(C)c2c(n1)sc1c(N3CCC(F)(F)C3)nccc12` [22f], the fraction unbound at 6 h, 1 µM was in the range of 0.012 to 0.033.

The test system of the next data set is amphetamine-induced hyperlocomotion in rats. Briefly: Rat amphetamine-induced hyperlocomotion (AHL). The data set is classed as in vivo. The settings on record: 10 mg/kg p.o. + amphetamine 0.75 mg/kg s.c. As for the experimental part:
Rat Amphetamine-Induced Hyperlocomotion (AHL) Protocol
Male Harlan Sprague Dawley rats with a mean body weight of 240 g (range 221-264 g) were tested in SmartFrame Open Field locomotor activity test chambers to automatically record locomotor activity. All rats were habituated in locomotor activity enclosures for 30 min, followed by pretreatment by oral gavage for an additional 30 min with either vehicle or a dose of VU6016235 or the comparator M 4 PAM VU0467154. Next, rats were injected subcutaneously with vehicle or a dose of 0.75 mg/kg amphetamine and then monitored for an additional 60 min. Changes in locomotor activity were recorded for a total of 120 min. Locomotor data were expressed as the number of photobeam breaks/5 min intervals across the 120-min test session or as the total ambulation, calculated as sum of photobeam beam breaks from the time of amphetamine administration (60 min) until the end of the study (120 min). Time course data were analyzed by two-way ANOVA with main effects of treatment and time; changes in total ambulation were analyzed by one-way ANOVA followed by Dunnett’s post hoc test (GraphPad Prism 7 [GraphPad Software, San Diego, CA]). For all tests, α ≤ 0.05 was considered to represent statistical significance.
Finally, percent reversal data were calculated in Microsoft Excel using the following formula: Percent Reversal = 100 - {[(total ambulation in individual animal from t = 60 to t = 120) / (mean total ambulation […]
from t=60 to t=120 in the VAMP group)] * 100}. Mean percent reversal ± S.E.M. was calculated for each dose group using GraphPad Prism 7.
At the end of this behavioral study, each rat was euthanized, then decapitated, and the plasma and brain tissues were collected for the evaluation of exposure levels of VU6016235-05 or VU0467154-9A by pharmacokinetic analysis. […]
With `Cc1nnc2sc(C(=O)NCc3ccc(S(=O)(=O)C(F)(F)F)cc3)c(N)c2c1C` [VU0467154, reference compound], the “mean reversal of AHL” value was 35.4 ± 4.2%.

System in a further data set: not listed separately
Nature of the data set: Intrinsic clearance in human liver microsomes. The data set is classed as in vitro ADME. The conditions noted are these: pH 7.4; human liver microsomes. As for the experimental part: as §3, §4, §5, §6, §7, §8, §9, §10, §11, §12, §13, §14, §15
The compound `Cc1nc(C)c2c(n1)sc1c(N3CCCCC3)nccc12` [22e] yielded a CLint scaled at 1 µM of 134 mL/min/kg.
The same measure, in the same setting: with `Cc1nc(C)c2c(n1)sc1c(N3CCC(F)(F)C3)nccc12` [22f] the figure was 148 mL/min/kg.

System in a further data set: not listed separately
Briefly: Rat plasma-to-brain level (PBL) cassette, brain distribution. The conditions noted are these: male, Sprague-Dawley, rat, brain / plasma, iv, 0.2 mg/kg, SD rat, 0.2 mg/kg IV, total brain to total plasma ratio. The data set is classed as in vivo.
Description: Blood samples were collected serially from a surgically implanted carotid artery catheter in each animal over multiple post-administration time points (0.033, 0.117, 0.25, 0.5, 1, 2, 4, 7, and 24 hours) into chilled, K2EDTA anticoagulant-fortified tubes and immediately placed on wet ice. The blood samples were then centrifuged (1700 rcf, 5 minutes, 4 °C) in order to obtain plasma samples, which were stored at -80 °C until
For determination of the brain over plasma ratio (Kp), compounds were formulated in 8% ethanol, 32% PEG400 and 60% DMSO (v/v/v) and administered as a single 0.2 mg/kg IV dose (1 mL/kg) to male, Sprague Dawley rats (n = 1; 316 gram body weights) via injection into a surgically-implanted jugular vein catheter. At 15 min post dosing, blood sample was collected serially (i.e., terminally) into chilled, K2EDTA anticoagulant-fortified tube and immediately placed on wet ice. The blood sample was then centrifuged (1700 rcf, 5 minutes, 4 °C) to obtain plasma sample. At the same post-administration time point, whole brain sample was obtained by rapid dissection, rinsed with PBS, and immediately frozen in individual tissue collection box (dry ice). All brain and plasma samples were stored at -80 °C until analysis by LC-MS/MS.
Samples preparation for bioanalysis
Plasma samples from the in-life phase of the study were thawed at ambient temperature (benchtop), and then aliquots (20 µL per sample) were transferred to a 96-shallow-well (V-bottom) plate. […] Acetonitrile (120 µL) containing IS (10 nM carbamazepine) was added to each well of the plate to precipitate protein. The plate was then centrifuged (4000 rcf, 5 minutes, ambient temperature), and resulting supernatants (60 µL each) were transferred to a new 96-shallow-well (V-bottom) plate containing an equal volume (60 µL per well) of water (Milli-Q purified).
Preparation of brain samples was identical to that of plasma samples except for the following modifications. While thawing, brains were weighed (inside their collection boxes using a universal empty collection box tare weight) and then subjected to mechanical homogenization (Mini-BeadBeater™, BioSpec Products, Inc., Bartlesville, OK) in the presence of zirconia/silica beads (1.0 mm) and extraction buffer (isopropanol:water, 7:3, v/v; 3 mL per sample, corrected for post-quantitation).
Regarding `Cc1nc(C)c2c(n1)sc1c(N3CCCCC3)nccc12` [22e], the Kp at 0.25 h stood at 7.77.
Still for that read-out and setting: with `Cc1nc(C)c2c(n1)sc1c(N3CCC(F)(F)C3)nccc12` [22f] the figure was 8.33.

The same data set, now with this note: male, Sprague-Dawley, rat, brain / plasma, iv, 0.2 mg/kg, SD rat, 0.2 mg/kg IV, unbound brain to unbound plasma ratio.
For the compound `Cc1nc(C)c2c(n1)sc1c(N3CCCCC3)nccc12` [22e], the Kp uu at 0.25 h is 1.64.
Still for that read-out and setting: with `Cc1nc(C)c2c(n1)sc1c(N3CCC(F)(F)C3)nccc12` [22f] the figure was 2.91.

System in another data set: not listed separately
Briefly: Binding in plasma from human (equilibrium dialysis). The data set is classed as in vitro ADME. The conditions noted are these: human, plasma, fraction unbound; equilibrium dialysis; read-out: human fu,plasma. As for the experimental part:
as §1, §2
Regarding `Cc1nc(C)c2c(n1)sc1c(N3CCCCC3)nccc12` [22e], the fraction unbound at 6 h, 5 µM is 0.007.
On the same count and under the same terms, the same measure for `Cc1nc(C)c2c(n1)sc1c(N3CCC(F)(F)C3)nccc12` [22f]: 0.01.

Staying with this data set, now noted: human, plasma, in %; read-out: human fu,plasma.
`Cc1nc(C)c2c(n1)sc1c(N3CCCCC3)nccc12` [22e]: the fraction unbound at 6 h, 5 µM is less than 0.01.

Still in this data set, the particulars now being: in %.
Consider `Cc1nc(C)c2c(n1)sc1c(N3CCCCC3)nccc12` [22e], for which the “human fu,plasma” value is on record as “highly bound”.

(Values after paper PMC11487561 (ACS Chemical Neuroscience, 2024).)
